Laboratory results: patent US8063014B2, “Self-assembly of peptide-amphiphile nanofibers under physiological conditions” (Northwestern University, priority 2002, dated 2011)
Non-standard residues stand in square brackets, D forms with d. Residues, ends and D or L forms follow the SMILES beside them. *: point of attachment. C16 alkyl = N-terminal C16 alkyl tail, CCCCCCCCCCCCCCCC*; Palmitoyl = CCCCCCCCCCCCCCCC(=O)*; pS = N[C@@H](COP(=O)(O)O)C(=O)O

Tests used:
[1] = Self-assembly on drying onto a surface; assay type: physicochemical; conditions: dissolved at neutral / physiological pH (pH 8), dried, negative stain TEM
Excerpt: Such a facile approach allows this novel material to be formed in a pH independent manner, as may be important in applications that are particularly sensitive to changes in pH, including the delivery of cells in conjunction with the gelling system and generally avoiding contact between tissues and materials at non-physiological pH.
Illustrating another gelation factor of this invention, self-assembly can occur by simply taking a PA (such as PA 17, Table 2) or a combination of PAs dissolved in water at pH 8 and placing it on a surface which is allowed to dry (for example, directly on a carbon coated TEM grid). […] (See, FIG. 11.)

[2] = Solubility, pH-dependent precipitation and gelation in water; assay type: physicochemical
Description: (§1) After synthesis (see, example 10), the PA of FIG. 1 (characterized by ^1H NMR and matrix-assisted laser desorption/ionization time-of-flight mass spectrometry (MALDI-TOF MS): matrix ion [M−H]^−1=1333) was treated with dithiothreitol (DTT) at a pH of 8 to reduce all cysteine residues to free thiols. […] However, upon acidification of the solution below pH 4 the material rapidly becomes insoluble. Solutions more concentrated than 2.5 mg/ml form birefringent gels in water that are self-supporting upon inversion of the container. […] Negatives were digitized in the Umax PowerLook scanner with resolution 1200 dpi. The average thickness of the PA fibers was determined by two different procedures. First the Fourier transform of the images and following measurements of the distances between the peaks were performed in the NIH Image […] program. The second approach applied was averaging technique based on the cross-correlation method, widely used in single particle reconstruction using the EMAN […] program. For each data set 1200-1300 individual boxes were selected.
Several PAs with basic amino acids that can self-assemble at alkaline pH and also mixed systems, in which oppositely charged PAs self-assemble at neutral pH, were prepared. For this purpose PA compounds 22-25 were prepared by standard solid phase peptide synthesis followed by alkylation with the C16 fatty acid, palmitic acid. See Table 2, FIG. 10b (PA 22) and FIGS. 10c-e (PAs 23-25). The peptides thus prepared were characterized by electrospray mass spectroscopy and found to correspond to their respective expected masses.
Solutions of each compound of example 6 were prepared at a concentration of 0.1 mg/m1 at neutral pH.

[3] = TEM of self-assembled nanofibers (fiber formation and diameter); assay type: physicochemical
Description: as §1, with “selected. […]” for “selected.”
Samples of the peptide-amphiphiles were prepared for TEM analysis in two different ways. In some cases a small sample of the gel, prepared in bulk as described above, was smeared onto a holey carbon coated TEM grid (Quantifoil). […]

[4] = Mineralization of PA nanofibers with CaCl2 and Na2HPO4 on TEM grid; conditions: 30 minutes of incubation with calcium and phosphate
Description: To investigate the mineralization properties of PA nanofibers of this invention, the material was assembled and mineralized directly on a holey carbon coated TEM grid—to allow study of the dynamics of the mineralization process while minimizing artifacts of TEM sample preparation. To prepare samples, a drop of aqueous PA (1 mg/ml) was mounted on the holey grid and the self-assembly of the PA was induced in an atmosphere of HCl vapor. The grids were immersed in aqueous iodine to oxidize the cysteine thiol groups to disulfides. After rinsing with distilled water, the PA coated grids were treated with 5 μl of 10 mM CaCl2 on one side and 5 μl of 5 mM Na2HPO4 on the other side. The two solutions are able to mix only by passing through the holes in the carbon support.
In a second control, a PA was prepared in which phosphoserine was replaced by serine and treated as above with calcium and phosphate.

Row | Compound | self-assembly on drying from solution onto a surface [1] | pH below which the material rapidly becomes insoluble on acidification ([2]; acidification of the aqueous solution) [pH] | concentration above which solutions form self-supporting birefringent gels in water ([2]; after acidification) [µg/mL] | solubility in water ([2]; pH of 8, DTT-reduced) [mg/mL] | fiber diameter, positively and negatively stained dried fibers ([3]; TEM, dried) [nm] | fiber diameter, cryo-TEM ([3]; native hydrated gel) [nm] | mineral observed on the fibers by TEM [4]
1 | 17 ({C16 alkyl}-CCCCGGG[pS]RGD-OH; cysteine pairing not given here) [compound 17] | formation of nanofibers |  |  |  |  |  | 
2 | CCCCCCCCCCCCCCCC(=O)N[C@@H](CS)C(=O)N[C@@H](CS)C(=O)N[C@@H](CS)C(=O)N[C@@H](CS)C(=O)NCC(=O)NCC(=O)NCC(=O)N[C@@H](COP(=O)(O)O)C(=O)N[C@@H](CCCNC(=N)N)C(=O)NCC(=O)N[C@@H](CC(=O)O)C(=O)O [PA 26, Alkyl*-C4G3S^(P)RGD-COOH] (Palmitoyl-CCCCGGG[pS]RGD-OH) |  | < 4 | > 2500 | > 50 | 6.0±1 | 7.6±1 | heavy crystallization
